The values below come from ChEMBL document CHEMBL3352622, “Folded structure and insertion depth of the frog-skin antimicrobial Peptide esculentin-1b(1-18) in the presence of differently charged membrane-mimicking micelles” (J Nat Prod, 2014).

Calls of active or inactive are those of the source. No cut-off for these calls is given here. Where a SMILES comes first, the peptide text is derived from it.

The test system of the test is Human alphaherpesvirus 1. Put plainly: Antiviral activity against HSV-1 assessed as reduction in infectivity in African green monkey Vero cells after 2 hrs by virus yield reduction assay. The format is functional, organism-based.

In the case of `CC[C@H](C)[C@H](NC(=O)CN)C(=O)N[C@@H](Cc1ccccc1)C(=O)N[C@@H](CO)C(=O)N[C@@H](CCCCN)C(=O)N[C@@H](CC(C)C)C(=O)N[C@@H](C)C(=O)NCC(=O)N[C@@H](CCCCN)C(=O)N[C@@H](CCCCN)C(=O)N[C@@H](CC(C)C)C(=O)N[C@@H](CCCCN)C(=O)N[C@@H](CC(N)=O)C(=O)N[C@@H](CC(C)C)C(=O)N[C@@H](CC(C)C)C(=O)N[C@H](C(=O)N[C@@H](CO)C(=O)NCC(N)=O)[C@@H](C)CC` (H-GIFSKLAGKKLKNLLISG-NH2), the outcome was inactive.
